Results on 8 compounds are retold here after PubChem BioAssay AID602164 (The Scripps Research Institute Molecular Screening Center, 2012).

SMILES strings stand for the structures. pIC50: −log10 of the molar value.

The subject of the assay is 2B4/Mcl-1 cells apoptosis, absorbance viability. Put plainly: apoptosis induction in Mcl-1-dependent versus Bcl-2 cells, late-stage follow-up, selectivity assay for MCL1-BIM inhibitor project, cell-based, absorbance, 2B4/Mcl1 vs 2B4/Bcl-2 (AID 602164).

`Oc1c(C(c2cccs2)N2CCN(c3ccccn3)CC2)ccc2cccnc12` (stereo not drawn): the pIC50 was 5.43.
The same measure for `CCN1CCN(C(c2cccs2)c2ccc3cccnc3c2O)CC1` (stereo not drawn): 5.42.
The same measure for `OCCN1CCN(C(c2cccs2)c2ccc3cccnc3c2O)CC1` (stereo not drawn): 5.29; for `CN1CCN(C(c2ccc(F)cc2)c2ccc3cccnc3c2O)CC1` (stereo not drawn): 5.40; for `Cc1ccnc(NC(c2cccs2)c2ccc3cccnc3c2O)c1` (stereo not drawn): 5.62.
The same measure for `Oc1c(C(Nc2ccccn2)c2cccs2)ccc2cccnc12` (stereo not drawn): 5.51.
In the case of `CC(C)Oc1ccc(C(Nc2ccccn2)c2ccc3cccnc3c2O)cc1` (stereo not drawn), the pIC50 is 5.64.
The same measure for `Oc1c(C(c2cccs2)N2CCCCC2)ccc2cccnc12` (stereo not drawn): 5.36.
